In patent US20250136592A1, “C-LINKED INHIBITORS OF ENL/AF9 YEATS” (Bridge Medicines, priority 2021, published 2025):
Where two headings read alike, the source gives them in different places.

How the values were obtained:
[1] = target: ENL YEATS domain (Homo sapiens (Human), UniProt Q03111); test: TR-FRET ENL Screening Assay; conditions: 6xHIS ENL YEATS domain binding to H3K9cr peptide
Protocol: Compounds of the invention were tested in a TR-FRET ENL Screening Assay. TR-FRET (time-resolved fluorescence energy transfer) can be used to quantify ENL YEATS domain binding to a crotonylated histone peptide (H3K9cr, aa1-20). Streptavidin-Europium (Eu) chelate binds the biotinylated peptide, while Anti-6×HIS ULight™ binds 6×HIS-ENL. When Eu chelate is excited at 320 nm, fluorescence resonance energy transfer (FRET) occurs if Eu and ULight are made proximal by ENL binding to the acyl-peptide.
Low control (LC) wells received 5 μL of assay buffer instead of ENL protein. […] The response at each compound concentration minus the LC value was converted to percent inhibition of the vehicle control group response (HC-LC).

[2] = system: MV4:11 (MLL-AF4 MLL) cells; test: Cell viability assay (CellTiter-Glo), 12 days; format: cell-based; conditions: MV4;11 cells, 12 day, read-out: CTG_MV4, 11 12 DAY_EC50
Protocol: The assays were conducted over 12 days and the cells being split on days 4 and 8. […] Blank wells received cell culture medium. Plates were incubated for 4 days at 37° C. with 5% CO2. On days 4 and day 8 the cells were split and incubated for a further 4 days whilst an aliquot of cells were taken for the CTG readout. For the cell splitting, 270 nL of compounds or DMSO was added to a new 96 well cell culture plate to which 90 μL of medium plus 10 μL of cells from the original assay plate (after mixing) or 100 μL of medium (Blank wells) was added. This was repeated on day 8.
Cell viability was assessed using the CellTiter-Glo® homogeneous luminescent assay kit (Promega, G9243), according to the manufacturer's instructions. This quantifies ATP, which indicates the presence of metabolically active cells. […] The resulting data were analyzed as follows:
where vehicle are cells treated with 0.3% DMSO, Blank is culture medium. IC50 determinations were calculated by fitting the curve using XLfit (v5.3.1.3): Y=Bottom+(Top−Bottom)/(1+10^((LogIC50−X)*HillSlope)).

Sequence of ENL YEATS domain (Q03111 1-138): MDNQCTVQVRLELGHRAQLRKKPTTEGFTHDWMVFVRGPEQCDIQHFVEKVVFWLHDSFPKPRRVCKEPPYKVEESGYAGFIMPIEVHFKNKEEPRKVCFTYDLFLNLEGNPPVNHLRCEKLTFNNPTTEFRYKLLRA

| IC50 [1] [nM] | EC50 ([2]; Homo sapiens, 288 h) [nM] | EC50 [2] [nM] | SMILES |
| --- | --- | --- | --- |
| 34 | 88 |  | Cc1nn(C)c2cc(C(=O)Nc3cc4[nH]c([C@H]5CCCN5C)cc4cn3)ccc12 [Example 40] |
| 14 | 72 |  | CN1CCC[C@@H]1c1cc2cnc(NC(=O)c3ccc4c(N)nccc4c3)cc2[nH]1 [Example 41] |
| 84 | 117 |  | Cc1ncc2cc(C(=O)Nc3cc4[nH]c([C@H]5CCCN5C)cc4cn3)ccn12 [Example 42] |
| 37 | 256 |  | CN1CCC[C@@H]1c1cc2cnc(NC(=O)c3ccc4[nH]nc(Cl)c4c3)cc2[nH]1 [Example 43] |
| 293 | 6950 |  | CN1CCC[C@@H]1c1cc2cnc(NC(=O)c3ccn4ccnc4c3)cc2[nH]1 [Example 45] |
| 61 | 257 |  | CN1CCC[C@@H]1c1cc2cnc(NC(=O)c3ccc4[nH]nc(F)c4c3)cc2[nH]1 [Example 46] |
| 28 | 745 |  | CNc1c(OC)cnc2cc(C(=O)Nc3cc4[nH]c([C@H]5CCCN5C)cc4cn3)ccc12 [Example 47] |
| 26 | 1440 |  | CN1CCC[C@@H]1c1cc2cnc(NC(=O)c3ccc4c(cnn4C)c3)cc2[nH]1 [Example 49] |
| 103 | 2320 |  | CNc1nn(C)c2cc(C(=O)Nc3cc4[nH]c([C@H]5CCCN5C)cc4cn3)ccc12 [Example 50] |
| 100 | 1200 |  | COCCNc1nn(C)c2cc(C(=O)Nc3cc4[nH]c([C@H]5CCCN5C)cc4cn3)ccc12 [Example 51] |
| 318 | 621 |  | COc1c(C(=O)Nc2cc3[nH]c([C@H]4CCCN4C)cc3cn2)ccc2c(C)n[nH]c12 [Example 54] |
| 18 | 688 |  | CN1CCC[C@@H]1c1cc2cnc(NC(=O)c3ccc4c(F)nn(C)c4c3)cc2[nH]1 [Example 55] |
| 131 | 4780 |  | Cc1nc2ccc(C(=O)Nc3cc4[nH]c([C@H]5CCCN5C)cc4cn3)cc2o1 [Example 56] |
| 106 | > 30000 |  | CN1CCC[C@@H]1c1cc2cnc(NC(=O)c3ccc4c(c3)nnn4C)cc2[nH]1 [Example 57] |
| 208 | 8580 |  | Cc1[nH]c2ccc(C(=O)Nc3cc4[nH]c([C@H]5CCCN5C)cc4cn3)cc2c1C [Example 58] |
| 53 | 15800 |  | CN1CCC[C@@H]1c1cc2cnc(NC(=O)c3ccc4c(c3)ncn4C)cc2[nH]1 [Example 59] |
| 148 | 298 |  | CN1CCC[C@@H]1c1cc2cnc(NC(=O)c3ccc4c(ccn4C)c3)cc2[nH]1 [Example 60] |
| 90 | 2860 |  | Cc1nc2cc(C(=O)Nc3cc4[nH]c([C@H]5CCCN5C)cc4cn3)ccc2[nH]1 [Example 61] |
| 465 | 597 |  | CN1CCC[C@@H]1c1cc2cnc(NC(=O)c3ccc4ccn(C)c4c3)cc2[nH]1 [Example 62] |
| 95 | 7020 |  | CN1CCC[C@@H]1c1cc2cnc(NC(=O)c3ccc4ncn(C)c4c3)cc2[nH]1 [Example 63] |
| 91 | 773 |  | Cc1nnn2cc(C(=O)Nc3cc4[nH]c([C@H]5CCCN5C)cc4cn3)ccc12 [Example 64] |
| 18 | 54 |  | Cc1nccc2cc(C(=O)Nc3cc4[nH]c([C@H]5CCCN5C)cc4cn3)ccc12 [Example 65] |
| 29 | 1630 |  | Cc1ccc2cc(C(=O)Nc3cc4[nH]c([C@H]5CCCN5C)cc4cn3)ccc2n1 [Example 66] |
| 75 | 38 |  | CC(C)c1ncc2cc(C(=O)Nc3cc4[nH]c([C@H]5CCCN5C)cc4cn3)ccn12 [Example 67] |

| IC50 [1] [nM] | EC50 ([2]; Homo sapiens, 288 h) [nM] | EC50 [2] [nM] | SMILES |
| --- | --- | --- | --- |
| 35 | 48 |  | CN1CCC[C@@H]1c1cc2cnc(NC(=O)c3ccn4c(C5CC5)ncc4c3)cc2[nH]1 [Example 68] |
| 110 | 189 |  | Cc1ncn2ccc(C(=O)Nc3cc4[nH]c([C@H]5CCCN5C)cc4cn3)cc12 [Example 70] |
| 120 | 2570 |  | CN1CCC[C@@H]1c1cc2cnc(NC(=O)c3ccc4nnn(C)c4c3)cc2[nH]1 [Example 72] |
| 79 | 1420 |  | CN1CCC[C@@H]1c1cc2ncc(NC(=O)c3ccc4c(F)n[nH]c4c3F)cc2[nH]1 [Example 74] |
| 126 | 2410 |  | Cc1ncc2c(F)c(C(=O)Nc3cnc4cc([C@H]5CCCN5C)[nH]c4c3)ccn12 [Example 75] |
| 136 |  | 723 | Cc1ccc2cc(C(=O)Nc3ccc4cc([C@H]5CCCN5C)[nH]c4c3)c(F)cc2n1 [Example 76] |
| 14 | 167 |  | CN1CCC[C@@H]1c1cc2cnc(NC(=O)c3ccc4c(C(F)F)nn(C)c4c3)cc2[nH]1 [Example 78, (R)-3-(difluoromethyl)-1-methyl-N-(2-(1-methylpyrrolidin-2-yl)-1H-pyrrolo[3,2-c]pyridin-6-yl)-1H-indazole-6-carboxamide] |
| 51 | 292 |  | CN1CCCC[C@@H]1c1cc2cnc(NC(=O)c3ccc4c(F)nn(C)c4c3)cc2[nH]1 [Example 81, (R)-3-fluoro-1-methyl-N-(2-(1-methylpiperidin-2-yl)-1H-pyrrolo[3,2-c]pyridin-6-yl)-1H-indazole-6-carboxamide] |
| 102 | 409 |  | CN1CCC[C@@H]1c1cc2ncc(NC(=O)c3ccc4cnn(C5CC5)c4c3)cc2[nH]1 [Example 82] |
| 64 | 229 |  | Cc1nccc2ccc(C(=O)Nc3cc4[nH]c([C@H]5CCCN5C)cc4cn3)cc12 [Example 83] |
| 31 | 134 |  | CN1CCC[C@@H]1c1cc2cnc(NC(=O)c3ccc4c(cnn4-c4ccncc4)c3)cc2[nH]1 [Example 84] |
| 47 | 172 |  | Cc1nn(C)c2ccc(C(=O)Nc3cc4[nH]c([C@H]5CCCCN5C)cc4cn3)cc12 [Example 87] |
| 47 | 69 |  | Cc1nccc2ccc(C(=O)Nc3cc4[nH]c([C@H]5CCCCN5C)cc4cn3)cc12 [Example 88] |
| 175 | 252 |  | Cc1ncc2ccc(C(=O)Nc3cc4[nH]c([C@H]5CCCCN5C)cc4cn3)cn12 [Example 89] |
| 51 | 144 |  | Cc1nc(C)n2cc(C(=O)Nc3cc4[nH]c([C@H]5CCCCN5C)cc4cn3)ccc12 [Example 90] |
| 93 | 100 |  | Cc1ncn2ccc(C(=O)Nc3cc4[nH]c([C@H]5CCCCN5C)cc4cn3)cc12 [Example 92] |
| 76 | 146 |  | Cc1nnc(C)c2cc(C(=O)Nc3cc4[nH]c([C@H]5CCCCN5C)cc4cn3)ccc12 [Example 93] |
| 220 | 368 |  | CN1C(=O)Cc2ccc(C(=O)Nc3cc4[nH]c([C@H]5CCCCN5C)cc4cn3)cc21 [Example 94] |
| 250 | 319 |  | CN1CCCC[C@@H]1c1cc2cnc(NC(=O)c3ccc4c(c3)N(C)S(=O)(=O)C4)cc2[nH]1 [Example 96] |
| 56 | 293 |  | CN1CCCC[C@@H]1c1cc2cnc(NC(=O)c3ccc4c(ccc(=O)n4C)c3)cc2[nH]1 [Example 99, (R)-1-methyl-N-(2-(1-methylpiperidin-2-yl)-1H-pyrrolo[3,2-c]pyridin-6-yl)-2-oxo-1,2-dihydroquinoline-6-carboxamide] |
| 177 | 426 |  | CN1CCCC[C@@H]1c1cc2cnc(NC(=O)c3ccc4c(=O)n(C)cnc4c3)cc2[nH]1 [Example 101, (R)-3-methyl-N-(2-(1-methylpiperidin-2-yl)-1H-pyrrolo[3,2-c]pyridin-6-yl)-4-oxo-3,4-dihydroquinazoline-7-carboxamide] |
| 200 | 289 |  | CN1CCCC[C@@H]1c1cc2cnc(NC(=O)c3ccc4ncn(C)c(=O)c4c3)cc2[nH]1 [Example 102, (R)-3-methyl-N-(2-(1-methylpiperidin-2-yl)-1H-pyrrolo[3,2-c]pyridin-6-yl)-4-oxo-3,4-dihydroquinazoline-6-carboxamide] |
| 148 | 292 |  | Cc1nn(C)c(=O)c2cc(C(=O)Nc3cc4[nH]c([C@H]5CCCCN5C)cc4cn3)ccc12 [Example 103, (R)-1,3-dimethyl-N-(2-(1-methylpiperidin-2-yl)-1H-pyrrolo[3,2-c]pyridin-6-yl)-4-oxo-3,4-dihydrophthalazine-6-carboxamide] |
| 160 | 492 |  | Cc1nn(C)c(=O)c2ccc(C(=O)Nc3cc4[nH]c([C@H]5CCCCN5C)cc4cn3)cc12 [Example 104, (R)-2,4-dimethyl-N-(2-(1-methylpiperidin-2-yl)-1H-pyrrolo[3,2-c]pyridin-6-yl)-1-oxo-1,2-dihydrophthalazine-6-carboxamide] |
